Data: ChEMBL document CHEMBL3769332, “Affinity-Based Fluorescence Polarization Assay for High-Throughput Screening of Prolyl Hydroxylase 2 Inhibitors” (ACS Med Chem Lett, 2015)

Target: Egl nine homolog 1 (Homo sapiens, UniProt Q9GZT9)
Sequence (Q9GZT9 whole entry): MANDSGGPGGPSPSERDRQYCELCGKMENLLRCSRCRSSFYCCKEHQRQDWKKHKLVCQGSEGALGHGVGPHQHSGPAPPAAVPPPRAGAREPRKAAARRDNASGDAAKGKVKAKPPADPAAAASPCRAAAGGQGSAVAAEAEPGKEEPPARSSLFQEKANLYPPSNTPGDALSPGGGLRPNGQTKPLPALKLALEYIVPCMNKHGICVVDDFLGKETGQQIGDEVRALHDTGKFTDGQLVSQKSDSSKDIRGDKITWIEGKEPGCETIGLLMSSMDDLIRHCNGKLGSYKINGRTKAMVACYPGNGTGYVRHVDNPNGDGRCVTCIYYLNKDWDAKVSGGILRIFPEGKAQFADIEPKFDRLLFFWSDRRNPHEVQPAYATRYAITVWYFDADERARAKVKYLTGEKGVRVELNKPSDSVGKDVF

SMILES | IC50
Cc1ccc(-c2cnc(C(=O)NCC(=O)O)c(O)c2)cc1 | 890 nM
O=c1c(-n2ccnn2)c[nH]n1-c1cc(N2CCOCC2)ncn1 [MOLIDUSTAT] | 876 nM
